Measurements from PubChem BioAssay (NCI).
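Compound exposure: 48 hours, 5 concentrations, 96-well plates. TGI denotes the concentration required for complete inhibition of growth.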

How the values were obtained:
Assay in all cases: inhibition of tumour cell growth, NCI panel, 48 h
[1] = test system: MDA-MB-231 breast
[2] = test system: ACHN renal
[3] = test system: TK-10 renal
[4] = test system: LOX IMVI melanoma
[5] = test system: SW-620 colon
[6] = test system: PC-3 prostate
[7] = test system: UO-31 renal
[8] = test system: MALME-3M melanoma
[9] = test system: COLO 205 colon
[10] = test system: CCRF-CEM leukemia
[11] = test system: BT-549 breast
[12] = test system: A498 renal
[13] = test system: K-562 leukemia
[14] = test system: U251 CNS
[15] = test system: EKVX NSCLC
[16] = test system: UACC-62 melanoma
[17] = test system: SR leukemia
[18] = test system: RXF 393 renal
[19] = test system: M14 melanoma
[20] = test system: KM12 colon
[21] = test system: OVCAR-4 ovarian
[22] = test system: OVCAR-8 ovarian
[23] = test system: NCI-H522 lung
[24] = test system: NCI-H226 lung
[25] = test system: HOP-92 NSCLC
[26] = test system: UACC-257 melanoma
[27] = test system: MDA-MB-435
[28] = test system: HOP-62 NSCLC
[29] = test system: HCT-15 colon
[30] = test system: NCI-H23 lung
[31] = test system: A549 NSCLC
[32] = test system: SK-MEL-2 melanoma
[33] = test system: MDA-N
[34] = test system: HCT-116 colon
[35] = test system: HL-60(TB) leukemia
[36] = test system: SK-MEL-5 melanoma
[37] = test system: HT29 colon
[38] = test system: DU-145 prostate
[39] = test system: T-47D breast
[40] = test system: SK-OV-3 ovarian
[41] = test system: OVCAR-5 ovarian
[42] = test system: IGROV1 ovarian
[43] = test system: SN12C renal
[44] = test system: SNB-19 CNS
[45] = test system: RPMI-8226 leukemia
[46] = test system: NCI-H460 lung
[47] = test system: MCF7 breast
[48] = test system: SF-268 CNS
[49] = test system: SNB-75 CNS
[50] = test system: HCC-2998 colon
[51] = test system: HS 578T breast
[52] = test system: 786-0 renal
[53] = test system: NCI/ADR-RES ovarian
[54] = test system: SK-MEL-28 melanoma
[55] = test system: SF-295 CNS
[56] = test system: CAKI-1 renal
[57] = test system: SF-539 CNS
[58] = test system: OVCAR-3 ovarian

Compound: c1ccc2nc(CCC3CCCCN3)ccc2c1 (stereo unspecified)
- TGI [1]: > 100 µM
- TGI [2]: > 100 µM
- TGI [3]: > 100 µM
- TGI [4]: > 100 µM
- TGI [5]: > 100 µM
- TGI [6]: > 100 µM
- TGI [7]: > 100 µM
- TGI [8]: > 100 µM
- TGI [9]: 31.5 µM
- TGI [10]: > 100 µM
- TGI [11]: > 100 µM
- TGI [12]: > 100 µM
- TGI [13]: > 100 µM
- TGI [14]: > 100 µM
- TGI [15]: > 100 µM
- TGI [16]: > 100 µM
- TGI [17]: > 100 µM
- TGI [18]: > 100 µM
- TGI [19]: > 100 µM
- TGI [20]: > 100 µM
- TGI [21]: > 100 µM
- TGI [22]: > 100 µM
- TGI [23]: > 100 µM
- TGI [24]: > 100 µM
- TGI [25]: > 100 µM
- TGI [26]: > 100 µM
- TGI [27]: > 100 µM
- TGI [28]: > 100 µM
- TGI [29]: > 100 µM
- TGI [30]: > 100 µM
- TGI [31]: > 100 µM
- TGI [32]: > 100 µM
- TGI [33]: > 100 µM
- TGI [34]: > 100 µM
- TGI [35]: > 100 µM
- TGI [36]: > 100 µM
- TGI [37]: > 100 µM
- TGI [38]: > 100 µM
- TGI [39]: > 100 µM
- TGI [40]: > 100 µM
- TGI [41]: > 100 µM
- TGI [42]: > 100 µM
- TGI [43]: > 100 µM
- TGI [44]: > 100 µM
- TGI [45]: > 100 µM
- TGI [46]: > 100 µM
- TGI [47]: > 100 µM
- TGI [48]: > 100 µM
- TGI [49]: > 100 µM
- TGI [50]: > 100 µM
- TGI [51]: > 100 µM
- TGI [52]: > 100 µM
- TGI [53]: > 100 µM
- TGI [54]: > 100 µM
- TGI [55]: > 100 µM
- TGI [56]: > 100 µM

Compound: Cc1cc(=O)oc2cc(OS(C)(=O)=O)ccc12
- TGI [1]: > 100 µM
- TGI [2]: > 100 µM
- TGI [3]: > 100 µM
- TGI [4]: > 100 µM
- TGI [5]: > 100 µM
- TGI [6]: > 100 µM
- TGI [8]: > 100 µM
- TGI [9]: > 100 µM
- TGI [10]: > 100 µM
- TGI [11]: > 100 µM
- TGI [12]: > 100 µM
- TGI [13]: > 100 µM
- TGI [14]: > 100 µM
- TGI [15]: > 100 µM
- TGI [16]: > 100 µM
- TGI [17]: > 100 µM
- TGI [18]: > 100 µM
- TGI [19]: > 100 µM
- TGI [21]: > 100 µM
- TGI [22]: > 100 µM
- TGI [23]: > 100 µM
- TGI [24]: > 100 µM
- TGI [25]: > 100 µM
- TGI [26]: > 100 µM
- TGI [27]: > 100 µM
- TGI [28]: > 100 µM
- TGI [29]: > 100 µM
- TGI [30]: > 100 µM
- TGI [31]: > 100 µM
- TGI [32]: > 100 µM
- TGI [33]: > 100 µM
- TGI [34]: > 100 µM
- TGI [35]: > 100 µM
- TGI [36]: > 100 µM
- TGI [37]: > 100 µM
- TGI [38]: > 100 µM
- TGI [39]: > 100 µM
- TGI [57]: > 100 µM
- TGI [41]: > 100 µM
- TGI [42]: > 100 µM
- TGI [43]: > 100 µM
- TGI [44]: > 100 µM
- TGI [45]: > 100 µM
- TGI [46]: > 100 µM
- TGI [47]: > 100 µM
- TGI [48]: > 100 µM
- TGI [49]: > 100 µM
- TGI [50]: > 100 µM
- TGI [51]: > 100 µM
- TGI [52]: > 100 µM
- TGI [53]: > 100 µM
- TGI [54]: > 100 µM
- TGI [55]: > 100 µM
- TGI [56]: > 100 µM
- TGI [58]: > 100 µM
